Test results as given in US20140011799A1 (Bristol-Myers Squibb Company, priority 2012, published 2014).

Target: T1, Endothelial lipase (EL) (Homo sapiens, UniProt Q9Y5X9)
T1 construct: HT-1080 cells that were transformed using RAGE technology (Athersys) to overexpress endogenous EL; endogenous in cells; conditioned medium used
T1 sequence (Q9Y5X9 21-500): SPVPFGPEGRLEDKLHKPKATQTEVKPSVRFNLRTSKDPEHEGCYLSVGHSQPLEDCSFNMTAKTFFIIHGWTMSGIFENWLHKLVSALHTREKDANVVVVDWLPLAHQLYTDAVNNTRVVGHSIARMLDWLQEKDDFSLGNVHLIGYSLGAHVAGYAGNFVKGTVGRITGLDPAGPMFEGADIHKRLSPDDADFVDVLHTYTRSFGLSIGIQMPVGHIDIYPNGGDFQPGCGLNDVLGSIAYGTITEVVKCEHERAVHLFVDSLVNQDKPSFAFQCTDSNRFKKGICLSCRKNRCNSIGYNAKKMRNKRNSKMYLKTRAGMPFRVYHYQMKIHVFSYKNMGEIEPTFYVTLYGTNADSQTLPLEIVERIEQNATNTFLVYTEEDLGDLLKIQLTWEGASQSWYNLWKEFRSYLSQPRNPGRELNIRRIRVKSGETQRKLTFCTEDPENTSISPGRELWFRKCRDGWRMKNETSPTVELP
Assay: Endothelial lipase (EL) enzymatic assay, fluorescent substrate A10070 in DMPG vesicles
Assay type: biochemical
Details: EL from conditioned media of HT-1080 cells; compound preincubated 30 min at 37° C; read-out: EL IC50
Description: Endothelial lipase (EL) and hepatic lipase (HL) activities were measured using a fluorescent substrate, A10070, (Invitrogen, CA) doped into an artificial vesicle containing DMPG (Avanti Polar Lipids) as the excipient. Vesicles were prepared by combining 571 μL of 29 mM DMPG in a 1:1 mixture of MeOH and CHCl3 with 2000 μL of 1 mM A10070 in a 1:1 mixture of MeOH and CHCl3. The mixture was dried under nitrogen in multiple vials then resuspended in 20 mL total volume of 50 mM HEPES pH 8.0 buffer containing 50 mM NaCl and 0.2 mM EDTA. The sample was allowed to sit at room temperature for 15 min and then was sonicated 3×4 mins on ice with a Branson Sonicator using duty cycle 1. This preparation provides vesicles with a mole fraction of 0.11 for the FRET substrate.
The enzymatic assay was measured using 384-well white Optiplates. Each well contained 20 μL of assay buffer (50 mM HEPES pH 8.0, 50 mM NaCl and 1 mM CaCl2) and 0.25 μL of a DMSO solution containing a compound of interest. EL or HL (10 μL) was added and allowed to incubate with the compound for 30 min at 37° C. The source of EL was conditioned media obtained from HT-1080 cells that were transformed using RAGE technology (Athersys) to overexpress endogenous EL, and HL was partially purified from conditioned media obtained from COS cells overexpressing HL. The reaction was started by the addition of 10 μL of a 1:10 dilution of vesicles. The final total reaction volume was […]. The reaction rates were measured on a Gemini plate reader with an excitation wavelength of 490 nm and an emission wavelength of 530 nm. Readings were taken over a period of 60 minutes, and the slope between 300 and 900 secs of the readout was used to calculate the rate of the reaction.

| IC50 [nM] | Compound |
| --- | --- |
| 62 | CC1(Cc2nnc(C(c3nc4ccc(-c5ccc(C(=O)N6CCOCC6)cc5)cc4s3)S(=O)(=O)Cc3ccccc3)o2)NC(=O)NC1=O (stereo not drawn) [Example 8, 5-((5-((benzylsulfonyl)(6-(4-(morpholine-4-carbonyl)phenyl)benzo[d]thiazol-2-yl)methyl)-1,3,4-oxadiazol-2-yl)methyl)-5-methylimidazolidine-2,4-dione] |
| 122 | CC1(Cc2nnc(C(c3nc4ccc(-c5ccnc(F)c5)cc4s3)S(=O)(=O)Cc3ccccc3)o2)NC(=O)NC1=O (single isomer, unassigned; isomer a) [Example 9, 5-((5-((benzylsulfonyl)(6-(2-fluoropyridin-4-yl)benzo[d]thiazol-2-yl)methyl)-1,3,4-oxadiazol-2-yl)methyl)-5-methylimidazolidine-2,4-dione (Isomer A)] |
| < 10 | CS(=O)(=O)C(c1nnc(CC2SC(=O)NC2=O)o1)c1nc2ccc(-c3ccc(F)nc3)cc2s1 (stereo not drawn) [Example 3, 5-((5-((6-(6-fluoro-3-pyridinyl)-1,3-benzothiazol-2-yl)(methylsulfonyl)methyl)-1,3,4-oxadiazol-2-yl)methyl)-1,3-thiazolidine-2,4-dione] |
| 48 | CS(=O)(=O)C(c1nnc(CN)o1)c1nc2ccc(-c3ccccc3)cc2s1 (stereo not drawn) [Example 85, (5-((Methylsulfonyl)(6-phenylbenzo[d]thiazol-2-yl)methyl)-1,3,4-oxadiazol-2-yl)methanamine] |
| 47 | CS(=O)(=O)NCc1nnc(C(c2nc3ccc(-c4ccccc4)cc3s2)S(C)(=O)=O)o1 (stereo not drawn) [Example 86, N-((5-((Methylsulfonyl)(6-phenylbenzo[d]thiazol-2-yl)methyl)-1,3,4-oxadiazol-2-yl)methyl)methanesulfonamide] |
| < 10 | CC1(Cc2nnc(C(c3nc4ccc(-c5ccc(F)nc5)cc4s3)S(C)(=O)=O)o2)SC(=O)NC1=O (single isomer, unassigned; isomer a) [Example 17, 5-((5-((6-(6-fluoropyridin-3-yl)benzo[d]thiazol-2-yl)(methylsulfonyl)methyl)-1,3,4-oxadiazol-2-yl)methyl)-5-methylthiazolidine-2,4-dione (Isomer A)] |
| < 10 | CC(C)S(=O)(=O)C(c1nnc(CNS(N)(=O)=O)o1)c1nc2ccc(-c3ccccc3)cc2s1 (stereo not drawn) [Example 49] |
| < 10 | Cc1cc2nc(C(c3nnc(CC4SC(=O)NC4=O)o3)S(C)(=O)=O)sc2cc1-c1ccccc1 (stereo not drawn) [Example 96, 5-((5-((5-methyl-6-phenylbenzo[d]thiazol-2-yl)(methyl-sulfonyl)methyl)-1,3,4-oxadiazol-2-yl)methyl)thiazolidine-2,4-dione] |
| < 10 | Cn1cc(-c2ccc3nc(C(c4nnc(CC5SC(=O)NC5=O)o4)S(C)(=O)=O)sc3c2)cn1 (stereo not drawn) [Example 24, 5-((5-((6-(1-methyl-1H-pyrazol-4-yl)benzo[d]thiazol-2-yl)(methylsulfonyl)methyl)-1,3,4-oxadiazol-2-yl)methyl) thiazolidine-2,4-dione] |

| Compound | IC50 [nM] |
| --- | --- |
| Cc1cccc(CS(=O)(=O)C(c2nnc(CNS(N)(=O)=O)o2)c2nc3ccc(-c4ccccc4)cc3s2)c1 (stereo not drawn) [Example 64, N-((5-(((3-methylbenzyl)sulfonyl)(6-phenyl-1,3-benzothiazol-2-yl)methyl)-1,3,4-oxadiazol-2-yl)methyl)sulfamide] | < 10 |
| NS(=O)(=O)NCc1nnc(C(c2nc3ccc(-c4ccccc4)cc3s2)S(=O)(=O)Cc2ccc(Cl)c(Cl)c2)o1 (stereo not drawn) [Example 60, N-((5-(((3,4-chlorobenzyl)sulfonyl)(6-phenyl-1,3-benzothiazol-2-yl)methyl)-1,3,4-oxadiazol-2-yl)methyl)sulfamide] | < 10 |
| NS(=O)(=O)NCc1nnc(C(c2nc3ccc(-c4ccccc4)cc3s2)S(=O)(=O)Cc2ccc(Cl)cc2)o1 (stereo not drawn) [Example 58, N-((5-(((4-chlorobenzyl)sulfonyl)(6-phenyl-1,3-benzothiazol-2-yl)methyl)-1,3,4-oxadiazol-2-yl)methyl)sulfamide] | < 10 |
